{"source": "patent US11053409B2", "about": "“Compositions for containers and other articles and methods of using same” (priority 2011, dated 2021)", "data": [{"molecular_target": "T1, human estrogen receptor (Homo sapiens, UniProt P03372)", "T1 sequence (P03372 1-595)": "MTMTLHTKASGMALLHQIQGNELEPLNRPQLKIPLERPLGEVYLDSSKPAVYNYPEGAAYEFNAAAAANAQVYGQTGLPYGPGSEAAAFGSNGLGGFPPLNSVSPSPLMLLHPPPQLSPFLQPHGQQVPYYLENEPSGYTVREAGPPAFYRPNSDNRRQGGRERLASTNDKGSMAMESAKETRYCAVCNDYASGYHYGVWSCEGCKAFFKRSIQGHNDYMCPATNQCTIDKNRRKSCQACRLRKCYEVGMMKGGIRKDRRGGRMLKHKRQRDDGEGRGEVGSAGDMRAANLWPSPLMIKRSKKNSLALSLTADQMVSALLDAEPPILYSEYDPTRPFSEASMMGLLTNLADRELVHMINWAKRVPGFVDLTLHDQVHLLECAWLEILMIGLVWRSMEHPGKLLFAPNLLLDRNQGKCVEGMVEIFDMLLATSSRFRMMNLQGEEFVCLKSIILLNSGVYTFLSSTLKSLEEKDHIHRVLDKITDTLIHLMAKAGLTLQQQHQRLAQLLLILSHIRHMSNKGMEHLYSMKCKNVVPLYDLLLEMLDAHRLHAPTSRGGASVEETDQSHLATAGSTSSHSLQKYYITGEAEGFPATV", "test": "suitable in vitro assay whose results are directly correlated to the MCF-7 assay", "settings": "in vitro assay correlated to MCF-7 assay through common reference compounds", "values": [{"smiles": "CCCC(c1cc(C(C)(C)C)c(O)cc1C)c1cc(C(C)(C)C)c(O)cc1C", "note": "[Structure 7, 4,4′-butylidenebis(2-t-butyl-5-methylphenol)]", "estrogenic activity": "do not exhibit appreciable estrogenic activity"}, {"smiles": "CC(C)(C)c1cc(Cc2cc(C(C)(C)C)c(O)c(C(C)(C)C)c2)cc(C(C)(C)C)c1O", "note": "[Structure 8]", "estrogenic activity": "do not exhibit appreciable estrogenic activity"}, {"smiles": "Cc1cc(Cc2cc(C)c(O)c(C)c2)cc(C)c1O", "note": "[Structure 6]", "estrogenic activity": "do not exhibit appreciable estrogenic activity"}, {"smiles": "Cc1cc(Cc2cc(C)cc(C(C)(C)C)c2O)c(O)c(C(C)(C)C)c1", "note": "[Structure 9]", "estrogenic activity": "do not exhibit appreciable estrogenic activity"}, {"smiles": "CC(C)(C)c1cc(O)c(C(C)(C)C)cc1O", "note": "[Structure 12]", "estrogenic activity": "do not exhibit appreciable estrogenic activity"}]}, {"system": "not listed separately", "test": "suitable genotoxicity assays (e.g., Ames II assay)", "assay_type": "cell-based", "settings": "not given", "procedure": "The mixture was stirred for 30 minutes at −10° C. Epichlorohydrin (1.9 liters, 24.2 moles) was added via dropping funnel at −10 to −5° C. The solution was allowed to warm up to room temperature and then was heated for 16 hours at a temperature of from 75 to 82° C. After cooling down to ambient temperature, the mixture was added to cold tap water (12 liters). Ethyl acetate (5 liters) was added to the mixture, which was stirred for 10 minutes and separated. The aqueous layer was extracted again with additional ethyl acetate (3 liters). The combined ethyl acetate extracts were washed twice with brine (2×6 liters), dried over anhydrous sodium sulfate (600 grams), and filtered. The solvent was removed under reduced pressure to give 887 grams of crude product as a purple oil. The crude product was dissolved in toluene (600 milliliters) and passed over a silica gel pad (1.4 kilograms), and eluted with a mixture of toluene and heptane (8 parts toluene to 2 parts heptane). The fractions containing product were combined and evaporated under reduced pressure. The product was mostly the desired diepoxide (756 grams, yellow oil which crystallizes in time), with some monoepoxide present. The purified material (756 grams) was dissolved at 70° C. in 2-propanol (2.3 liters) and then allowed to cool down to room temperature overnight. […]", "values": [{"smiles": "CCCC(c1cc(C(C)(C)C)c(OCC2CO2)cc1C)c1cc(C(C)(C)C)c(OCC2CO2)cc1C", "note": "(stereo not shown)", "genotoxicity": "non-genotoxic"}, {"smiles": "CC(C)(C)c1cc(Cc2cc(C(C)(C)C)c(OCC3CO3)c(C(C)(C)C)c2)cc(C(C)(C)C)c1OCC1CO1", "note": "(stereo not shown) [Diglycidyl ether of 4,4′-methylenebis(2,6-di-tert-butylphenol)]", "genotoxicity": "non-genotoxic"}]}, {"system": "MCF-7, clone WS8, cells", "test": "MCF-7 cell proliferation assay of estrogenic activity", "assay_type": "cell-based, human", "settings": "logarithmic (base 10) Relative Proliferative Effect relative to 17-beta estradiol; values stated as expected or measured", "text": "The MCF-7 assay uses MCF-7, clone WS8, cells to measure whether and to what extent a substance induces cell proliferation via estrogen receptor (ER)-mediated pathways. The method is described in “Test Method Nomination: MCF-7 Cell Proliferation Assay of Estrogenic Activity” submitted for validation by CertiChem, Inc. to the National Toxicology Program Interagency Center for the Evaluation of Alternative Toxicological Methods (NICEATM) on Jan. 19, 2006 (available online at http://iccvam.niehs.nih.gov/methods/endocrine/endodocs/SubmDoc.pdf).\nA brief summary of the method of the aforementioned MCF-7 assay is provided below. MCF-7, clone WS8, cells are maintained at 37° C. in RMPI (or Roswell Park Memorial Institute medium) containing Phenol Red (e.g., GIBCO Catalog Number 11875119) and supplemented with the indicated additives for routine culture. An aliquot of cells maintained at 37° C. are grown for 2 days in phenol-free media containing 5% charcoal stripped fetal bovine serum in a 25 cm^2 tissue culture flask. Using a robotic dispenser such as an epMotion 5070 unit, MCF-7 cells are then seeded at 400 cells per well in 0.2 ml of hormone-free culture medium in Corning 96-well plates. The cells are adapted for 3 days in the hormone-free culture medium prior to adding the chemical to be assayed for estrogenic activity. The media containing the test chemical is replaced daily for 6 days. At the end of the 7-day exposure to the test chemical, the media is removed, the wells are washed once with 0.2 ml of HBSS (Hanks' Balanced Salt Solution), and then assayed to quantify amounts of DNA per well using a micro-plate modification of the Burton diphenylamine (DPA) assay, which is used to calculate the level of cell proliferation.\nRPE is the ratio between the EC50 of the test chemical and the EC50 of the control substance 17-beta estradiol times 100, where EC50 is “effective concentration 50%” or half-maximum stimulation concentration for cell proliferation measured as total DNA in the MCF-7 assay.", "values": [{"smiles": "CC(c1ccccc1)(c1ccc(O)cc1)c1ccc(O)cc1", "note": "[Structure 4]", "Log RPE": "−3"}, {"smiles": "Oc1ccc(Cc2ccc(O)cc2)cc1", "note": "[Bisphenol F, reference compound]", "Log RPE": "−2"}, {"smiles": "Oc1ccccc1Cc1ccccc1O", "note": "[Structure 11]", "Log RPE": "less than −4"}, {"smiles": "CC/C(=C(/CC)c1ccc(O)cc1)c1ccc(O)cc1", "note": "[diethylstilbestrol, reference compound]", "Log RPE": "about 2"}, {"smiles": "CC(C)(C)c1cc(Cc2cc(C(C)(C)C)c(O)c(C(C)(C)C)c2)cc(C(C)(C)C)c1O", "note": "[Structure 8]", "Log RPE": "less than −4"}, {"smiles": "CC(C)(c1ccc(O)cc1)c1ccc(C(C)(C)c2ccc(O)cc2)cc1", "note": "[Structure 10]", "Log RPE": "less than −4"}, {"smiles": "Cc1cc(CCc2cc(C)c(O)c(C)c2)cc(C)c1O", "note": "[Structure 2]", "Log RPE": "−3"}, {"smiles": "Cc1cc(Cc2cc(C)c(O)c(C)c2)cc(C)c1O", "note": "[Structure 6]", "Log RPE": "less than −4"}, {"smiles": "O=c1c(-c2ccc(O)cc2)coc2cc(O)cc(O)c12", "note": "[Genistein, reference compound]", "Log RPE": "−2"}, {"smiles": "C[C@]12CC[C@@H]3c4ccc(O)cc4CC[C@H]3[C@@H]1CC[C@@H]2O", "note": "[17β-estradiol, reference compound]", "Log RPE": 2.00}, {"smiles": "Cc1cc(Cc2cc(C)cc(C3(C)CCCCC3)c2O)c(O)c(C2(C)CCCCC2)c1", "note": "[Structure 13]", "Log RPE": "less than −4"}, {"smiles": "CCc1cc(Cc2cc(CC)cc(C(C)(C)C)c2O)c(O)c(C(C)(C)C)c1", "note": "[Structure 15]", "Log RPE": "less than −4"}, {"smiles": "C/C=C(/C(=C/C)c1ccc(O)cc1)c1ccc(O)cc1", "note": "[dienestrol, reference compound]", "Log RPE": "about 2"}, {"smiles": "CC(c1ccc(O)cc1)(c1ccc(O)cc1)c1ccc(O)cc1", "note": "[Structure 3]", "Log RPE": "−3"}, {"smiles": "CCCC(c1cc(C(C)(C)C)c(O)cc1C)c1cc(C(C)(C)C)c(O)cc1C", "note": "[Structure 7]", "Log RPE": "less than −4"}, {"smiles": "Cc1cc(Cc2cc(C)cc(C(C)(C)C)c2O)c(O)c(C(C)(C)C)c1", "note": "[Structure 9]", "Log RPE": "less than −4"}, {"smiles": "O=S(=O)(c1ccc(O)cc1)c1ccc(O)cc1", "note": "[Bisphenol S, reference compound]", "Log RPE": "−2"}, {"smiles": "Cc1cc(C(C)(C)c2cc(C)c(O)c(C)c2)cc(C)c1O", "note": "[Structure 1]", "Log RPE": "−2"}]}]}
